Data: patent publication US9304132B2, “Molecular delivery with nanowires” (President and Fellows of Harvard College, priority 2009, dated 2016)

Legend:
Format in all cases: cell-based
[1] = system: neural precursor cells (NPCs); experiment: Control over growth and differentiation of neural precursor cells on Ara-C coated Si NWs (immunofluorescence)
Description: Si NWs were grown on a Si substrate via CVD. Substrates were first prepared by immobilizing Au nanoparticles on a precleaned Si (111) substrate using a thin polyelectrolyte layer as previously described (J. Am. Chem. Soc. 2008, 130, 6252-6258; Nano Lett. 2004, 4, 1987-1990; J. Am. Chem. Soc. 2001, 123, 9769-9779; J. Am. Chem. Soc. 2008, 130, 6252-6258). Si NWs were then synthesized by the vapor transport method using SiCl4 as the precursor for Si NW growth and H2 (10%) in argon as the carrier gas with minor modifications from that which was previously reported (Nano Lett. 2005, 5, 457-460). Briefly, a Si (111) substrate, covered with Au nanoparticles patterned into stripes by flowing a solution of 70 nm Au nanoparticles across poly-l-lysine coated silicon using PDMS microfluidic channels, was placed inside a 1″ diameter quartz tube and loaded at the center of a 12″ horizontal tube furnace (Lindberg/Blue M). After the quartz tube was evacuated and flushed repeatedly with H2 (10%) in argon gas mixture to minimize oxygen contamination, it was charged with H2 (10%) in argon gas up to 760 torr and the pump line was quickly replaced with a line that enabled venting through a bubbler filled with a saturated K2CO3 aqueous solution, meant to trap the byproduct of SiCl4 decomposition, gaseous HCl. […]

[2] = system: HeLa cells; experiment: Apoptosis assay (TUNEL / Annexin V) of HeLa cells on inhibitor-coated Si NWs after actinomycin-D and TNF-α; details: Si NWs treated with 100 mM inhibitor; actinomycin-D 1 μg/mL, TNF-α 2 ng/mL; cells on uncoated NWs died
Description: The silanized Si NWs (produced via CVD prior to silanization) were treated with 100 mM Ac-DEVD-CHO, an apoptosis inhibitor, in PBS at room temperature for 1 hr, and washed in PBS three times for 2 min each. HeLa cells (5×10^4 cells/mL) in DMEM media were added onto the Si NWs, and cultured in a CO2 incubator at 37° C. overnight. The cell treated Si NWs were then transferred into a fresh DMEM media containing actinomycin-D at the final concentration of 1 μg/mL, and incubated in a CO2 incubator at 37° C. for 30 min, followed by addition of TNF-α at the final concentration of 2 ng/mL. After incubation in CO2 incubator at 37° C. for indicated hours, the cells on the Si NWs were assayed for apoptosis.
Cells were analyzed for apoptosis by the Terminal Deoxynucleotide Transferase dUTP Nick End Labeling (TUNEL) assay or by the Annexin V assay. TUNEL staining was performed using the apoptosis detection kit according to the manufacturer's protocol with minor modifications. […] After blocking, streptavidin-Cy3 at 20 μg/mL and WGA Alexa Fluor 488 at 50 μg/mL were incubated with the Si NWs for 30 min at room temperature, and washed in PBC three times for 5 min each, followed by examination under a fluorescence microscope. […] After incubation for 15 min at room temperature and washes in binding buffer three times for 1 min each, cells were analyzed under a fluorescence microscope.

[3] = system: Mouse embryonic stem cells (mES cells); experiment: Si NW delivery into mouse embryonic stem cells; details: delivered by Si NWs
Description: Mouse embryonic stem cells (mES cells) were also used in this study. Delivery of molecules (including Cre Recombinase proteins) into mES cells was carried out in a manner similar to that described in Example 3.

Molecule: Nc1ccn([C@@H]2O[C@H](CO)[C@@H](O)[C@@H]2O)c(=O)n1 [Ara-C, Cytarabine]
- proliferation of glial-like cell plated atop Ara-C coated NWs ([1]; Ara-C 1 mg/mL, 5 uL coated on silanized CVD Si NWs, examined on sixth day): survived but did not proliferate
- cell type mixture in regions containing NWs ([1]; Ara-C coated NWs, regions without NWs showed only mitotic cell types, sixth day): neuron heavy

Molecule: Ac-DEVD-CHO
- cell survival after apoptosis induction [2]: survived

B1: Cre Recombinase proteins: Cre Recombinase proteins delivered by Si NWs into mES cells (protein, UniProt P06956 1-343, looked up)
Recombinase cre: MSNLLTVHQNLPALPVDATSDEVRKNLMDMFRDRQAFSEHTWKMLLSVCRSWAAWCKLNNRKWFPAEPEDVRDYLLYLQARGLAVKTIQQHLGQLNMLHRRSGLPRPSDSNAVSLVMRRIRKENVDAGERAKQALAFERTDFDQVRSLMENSDRCQDIRNLAFLGIAYNTLLRIAEIARIRVKDISRTDGGRMLIHIGRTKTLVSTAGVEKALSLGVTKLVERWISVSGVADDPNNYLFCRVRKNGVAAPSATSQLSTRALEGIFEATHRLIYGAKDDSGQRYLAWSGHSARVGAARDMARAGVSIPEIMQAGGWTNVNIVMNYIRNLDSETGAMVRLLEDGD
- EGFP expression in transgenic foxed-eGFP mES cells [3]: expressed EGFP
